Data from patent US9738637B2, “Histone demethylase inhibitors” (Quanticel Pharmaceuticals, Inc., priority 2013, dated 2017).
Counter-ions that a name gives are not always drawn.

Experiments:
Jarid1A = Jarid1A (Homo sapiens (Human), UniProt P29375); assay: Jarid1A in vitro enzyme inhibition assay (TR-FRET); assay type: biochemical; settings: H3K4me3-biotin peptide
Jarid1B = Jarid1B (Homo sapiens (Human), UniProt Q9UGL1); assay: Jarid1B in vitro enzyme inhibition assay (TR-FRET); assay type: biochemical; settings: TR-FRET, H3K4me3-biotin peptide; read-out: IC50 Jarid1B
JMJD2C = JMJD2C (Homo sapiens (Human), UniProt Q9H3R0); assay: JMJD2C in vitro enzyme inhibition assay (TR-FRET); assay type: biochemical; settings: TR-FRET, H3K9me3-biotin peptide; read-out: IC50 JNJD2C
JMJD2A = JMJD2A (Homo sapiens (Human), UniProt O75164); assay: JMJD2A in vitro enzyme inhibition assay (TR-FRET); assay type: biochemical; settings: H3K9me3-biotin peptide
Protocol: This assay determines the ability of a test compound to inhibit Jarid1A, Jarid1B, JMJD2C, and JMJD2A demethylase activity.
Reaction product was determined quantitatively by TR-FRET after the addition of detection reagent Phycolink Streptavidin-allophycocyanin (Prozyme) and Europium-anti-di-methylated histone H3 lysine 9 (H3K9me2) antibody (PerkinElmer) in the presence of 5 mM EDTA in LANCE detection buffer (PerkinElmer) at a final concentration of 50 nM and 1 nM, respectively.
The assay reaction was initiated by the following: 2 μl of the mixture of 900 nM H3K9me3-biotin labeled peptide and 6 μM alpha-ketoglutaric acid with 2 μl of 11-point serial diluted inhibitor in 3% DMSO were added to each well of plate, followed by the addition of 2 μl of 6 nM JMJD2A to initiate the reaction. The reaction mixture was incubated at room temperature for 30 minutes, and terminated by the addition of 6 μl of 5 mM EDTA in LANCE detection buffer containing 100 nM Phycolink Streptavidin-allophycocyanin and 2 nM Europium-anti-H3K9me2 antibody.
The ability of the compounds disclosed herein to inhibit demethylase activity was quantified and the respective IC50 value was determined.

KDM5A and KDM5B = assay: In vitro cell-based assay, ZR-75-1 cell line: tri-methyl H3K4 immuno-blotting (cellular inhibition of KDM5A/B); settings: ZR-75-1 breast cancer cells, 72 hours, read-out: IC50 ZR-75-1 cell-MOA
Excerpt: This quantitative immuno-blotting assay measures the amount tri-methylated histone H3 at amino acid Lysine number 4, a specific substrate […] of the direct enzymatic activity of the histone demethylases KDM5A and KDM5B from extracts of the ZR-75-1 breast cancer cell line.
This assay is a fluorometric immunoassay for the quantification of tri-methyl H3K4 extracted from cells treated with test compound and is used as a measure of the cellular inhibition of KDM5A/B.
Cells were left in the presence of test compound for 72 hours. Extracts were prepared containing all of the cellular histone material using detergent based lysis and sonication methods. These lysates were subsequently normalized for total protein content using a colorimetric bicinchonic acid assay (MicroBCA Pierce/Thermo Scientific). Normalized cell extracts were then subjected to typical immuno-blotting procedures using NuPage reagents (Life Technologies). Electrophoretically separated histones were then transferred and immobilized using polyvinylidene difluoride membrane (Immobilon-FL Millipore). The amount of tri-methylated lysine 4 of histone H3 was detected using an antibody specific to the tri-methylated state (Cell Signaling Technologies) and quantified on an infrared imager using a densitometry software package (Odyssey CLx, Image Studio, Li-Cor). This background subtracted densitometry value was reported as a ration of the GAPDH amount for that sample and then calculated as a percent of the DMSO treated sample. The software package XL-fit (IDBS) was then used to calculate a relative IC50 value for the dilution series of a given test compound according to the equation: fit=(D+((Vmax*(x^n))/((x^n)+(Km^n)))).

Sequence of Jarid1B (Q9UGL1 2-751): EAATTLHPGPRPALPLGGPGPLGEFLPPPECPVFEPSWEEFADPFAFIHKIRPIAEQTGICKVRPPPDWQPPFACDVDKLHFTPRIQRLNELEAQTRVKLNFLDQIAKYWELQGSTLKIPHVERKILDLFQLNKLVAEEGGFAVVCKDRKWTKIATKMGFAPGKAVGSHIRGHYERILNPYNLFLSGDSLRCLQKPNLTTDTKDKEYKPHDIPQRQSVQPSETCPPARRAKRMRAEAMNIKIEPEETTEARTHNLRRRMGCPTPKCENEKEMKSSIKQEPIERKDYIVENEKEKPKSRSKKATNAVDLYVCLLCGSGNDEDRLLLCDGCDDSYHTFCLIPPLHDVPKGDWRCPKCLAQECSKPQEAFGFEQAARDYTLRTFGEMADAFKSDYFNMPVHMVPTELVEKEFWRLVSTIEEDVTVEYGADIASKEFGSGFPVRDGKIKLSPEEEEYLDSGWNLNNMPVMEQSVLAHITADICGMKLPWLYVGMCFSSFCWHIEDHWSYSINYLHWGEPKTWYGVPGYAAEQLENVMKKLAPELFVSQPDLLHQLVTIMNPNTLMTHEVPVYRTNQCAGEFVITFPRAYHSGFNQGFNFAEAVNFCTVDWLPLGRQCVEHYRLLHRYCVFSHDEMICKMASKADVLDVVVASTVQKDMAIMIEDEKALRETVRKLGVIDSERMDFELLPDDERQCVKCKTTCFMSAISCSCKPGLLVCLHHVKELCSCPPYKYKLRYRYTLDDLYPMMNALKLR
Sequence of Jarid1A (P29375 1-1090): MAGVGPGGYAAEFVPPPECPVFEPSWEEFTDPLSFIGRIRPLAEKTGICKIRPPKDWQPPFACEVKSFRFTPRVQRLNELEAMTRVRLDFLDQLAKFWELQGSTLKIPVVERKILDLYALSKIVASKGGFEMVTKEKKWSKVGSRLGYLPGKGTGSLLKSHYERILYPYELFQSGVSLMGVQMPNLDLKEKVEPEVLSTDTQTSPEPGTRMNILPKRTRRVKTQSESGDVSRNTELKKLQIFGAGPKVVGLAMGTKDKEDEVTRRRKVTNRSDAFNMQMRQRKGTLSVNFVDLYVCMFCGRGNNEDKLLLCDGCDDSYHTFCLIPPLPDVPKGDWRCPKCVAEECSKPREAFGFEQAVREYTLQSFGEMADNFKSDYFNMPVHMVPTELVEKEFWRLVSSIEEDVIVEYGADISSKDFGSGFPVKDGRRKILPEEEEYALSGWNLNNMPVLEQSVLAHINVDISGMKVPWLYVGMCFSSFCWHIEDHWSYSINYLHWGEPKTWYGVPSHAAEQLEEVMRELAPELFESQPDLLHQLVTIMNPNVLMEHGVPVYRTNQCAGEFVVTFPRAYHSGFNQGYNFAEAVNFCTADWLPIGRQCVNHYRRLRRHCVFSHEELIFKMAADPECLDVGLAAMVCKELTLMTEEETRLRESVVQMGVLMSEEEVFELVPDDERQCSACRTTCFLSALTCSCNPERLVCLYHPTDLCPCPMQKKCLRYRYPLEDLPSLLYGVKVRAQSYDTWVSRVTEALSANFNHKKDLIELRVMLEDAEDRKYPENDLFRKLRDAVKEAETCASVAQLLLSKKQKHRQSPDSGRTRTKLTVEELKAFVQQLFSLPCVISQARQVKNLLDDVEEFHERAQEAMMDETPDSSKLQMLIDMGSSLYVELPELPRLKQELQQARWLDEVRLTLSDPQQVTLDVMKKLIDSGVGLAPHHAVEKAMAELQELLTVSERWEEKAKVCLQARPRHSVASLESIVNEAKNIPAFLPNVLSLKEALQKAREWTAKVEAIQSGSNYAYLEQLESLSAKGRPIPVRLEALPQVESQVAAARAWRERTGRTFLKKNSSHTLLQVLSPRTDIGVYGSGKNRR
Sequence of JMJD2A (O75164 1-350): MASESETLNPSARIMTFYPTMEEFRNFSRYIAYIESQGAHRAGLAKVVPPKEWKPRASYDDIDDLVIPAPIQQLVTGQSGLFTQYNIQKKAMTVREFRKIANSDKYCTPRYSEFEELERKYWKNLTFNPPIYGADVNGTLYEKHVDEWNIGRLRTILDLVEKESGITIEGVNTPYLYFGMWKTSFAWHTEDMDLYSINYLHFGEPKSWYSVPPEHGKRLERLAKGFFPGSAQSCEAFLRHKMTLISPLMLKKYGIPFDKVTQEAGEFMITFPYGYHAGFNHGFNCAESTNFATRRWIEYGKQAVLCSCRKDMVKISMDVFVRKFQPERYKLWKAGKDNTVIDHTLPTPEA
Sequence of JMJD2C (Q9H3R0 2-372): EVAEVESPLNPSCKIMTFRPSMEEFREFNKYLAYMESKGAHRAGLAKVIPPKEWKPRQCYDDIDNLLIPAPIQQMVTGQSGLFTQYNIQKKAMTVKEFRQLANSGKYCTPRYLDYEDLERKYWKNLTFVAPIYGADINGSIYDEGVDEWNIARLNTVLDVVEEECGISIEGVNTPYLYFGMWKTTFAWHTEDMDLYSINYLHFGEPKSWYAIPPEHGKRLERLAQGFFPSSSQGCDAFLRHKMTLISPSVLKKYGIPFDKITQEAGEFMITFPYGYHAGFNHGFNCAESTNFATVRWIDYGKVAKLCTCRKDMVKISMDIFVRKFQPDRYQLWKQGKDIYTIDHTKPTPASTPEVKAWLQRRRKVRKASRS

IC50 (Jarid1A) [nM] | IC50 (Jarid1B) [nM] | IC50 (JMJD2C) [nM] | IC50 (JMJD2A) [nM] | IC50 (KDM5A and KDM5B) [nM] | SMILES
1000 to 10000 | 1000 to 10000 | < 100 | 100 to 1000 |  | O=C(O)c1ccnc2cc(Cc3ccc(Cl)c(Cl)c3)[nH]c12 [Example 130, 2-(3,4-dichlorobenzyl)-1H-pyrrolo[3,2-b]pyridine-7-carboxylic acid]
1000 to 10000 | 1000 to 10000 | 100 to 1000 | 100 to 1000 |  | O=C(O)c1ccnc2cc(Cc3cc(F)c(Cl)c(Cl)c3)[nH]c12 [Example 132, 2-(3,4-dichloro-5-fluorobenzyl)-1H-pyrrolo[3,2-b]pyridine-7-carboxylic acid]
1000 to 10000 | 1000 to 10000 | < 100 | 100 to 1000 |  | O=C(O)c1ccnc2cc(Cc3ccc(Cl)c(C(F)(F)F)c3)[nH]c12 [Example 136, 2-[4-chloro-3-(trifluoromethyl)benzyl]-1H-pyrrolo[3,2-b]pyridine-7-carboxylic acid]

More lines, now with the values behind:

SMILES | IC50 (Jarid1A) [nM] | IC50 (Jarid1B) [nM] | IC50 (JMJD2C) [nM] | IC50 (JMJD2A) [nM] | IC50 (KDM5A and KDM5B) [nM]
O=C(O)c1ccnc2cc(Cc3ccccc3)[nH]c12 [Example 7, 2-benzyl-1H-pyrrolo[3,2-b]pyridine-7-carboxylic acid, sodium salt] | 100 to 1000 | 100 to 1000 | 100 to 1000 | 100 to 1000 | > 10000
COc1cccc(C(O)c2cc3nccc(C(=O)O)c3[nH]2)c1 (racemic) [Example 24, (±)-2-[hydroxy-(3-methoxyphenyl)methyl]-1H-pyrrolo[3,2-b]pyridine-7-carboxylic acid] | < 100 | < 100 | 100 to 1000 | 100 to 1000 | 
